The target of series [1] is T1, Histone-lysine N-methyltransferase EZH2 (Homo sapiens, UniProt Q15910). The series can be described thus: Inhibition of wild type EZH2 (unknown origin).
Target sequence in this assay (Q15910 whole entry): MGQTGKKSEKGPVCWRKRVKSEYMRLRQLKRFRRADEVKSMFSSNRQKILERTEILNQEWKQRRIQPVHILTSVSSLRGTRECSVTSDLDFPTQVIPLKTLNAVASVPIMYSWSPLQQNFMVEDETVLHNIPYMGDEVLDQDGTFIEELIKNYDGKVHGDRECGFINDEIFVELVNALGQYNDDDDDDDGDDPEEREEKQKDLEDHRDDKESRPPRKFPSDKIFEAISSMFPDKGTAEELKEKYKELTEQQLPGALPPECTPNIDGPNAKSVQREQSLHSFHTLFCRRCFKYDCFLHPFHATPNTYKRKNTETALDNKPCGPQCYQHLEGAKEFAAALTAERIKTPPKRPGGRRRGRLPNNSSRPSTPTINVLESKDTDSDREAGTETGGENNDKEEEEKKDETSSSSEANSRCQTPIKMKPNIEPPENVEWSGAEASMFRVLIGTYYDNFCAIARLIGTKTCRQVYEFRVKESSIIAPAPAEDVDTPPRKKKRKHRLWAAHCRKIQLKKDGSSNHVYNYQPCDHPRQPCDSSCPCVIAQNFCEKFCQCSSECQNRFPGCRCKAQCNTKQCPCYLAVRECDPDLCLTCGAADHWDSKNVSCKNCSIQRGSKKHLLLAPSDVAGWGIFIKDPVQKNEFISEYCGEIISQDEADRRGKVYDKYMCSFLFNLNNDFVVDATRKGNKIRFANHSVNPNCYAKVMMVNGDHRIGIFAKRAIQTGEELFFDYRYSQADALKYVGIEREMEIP
Series [2] deals with Histone-lysine N-methyltransferase EZH2 (Homo sapiens, UniProt Q15910, Y641N). Description: Inhibition of EZH2 Y641N mutant (unknown origin).
The nature of series [3]: Passive permeability from apical to basolateral side in human Caco2 cells. Type of series: ADME, cell-based. The note with it: Caco-2, read-out: permeability.
A short description of series [4]: Passive permeability from basolateral to apical side in human Caco2 cells. Type of series: ADME, cell-based. The settings on record: Caco-2, read-out: permeability.
Series [5] in a line: Efflux ratio of passive permeability in human Caco2 cells. Type of series: ADME, cell-based. The settings on record: Caco-2. Background: Caco-2 cells form a polarised layer with tight junctions and transporters.
The target in series [6] is T1, Histone-lysine N-methyltransferase EZH2. The series can be described thus: Inhibition of EZH2 in human HeLa cells assessed as reduction in H3K27me3 level. The series is classed as cell-based.
Target sequence in this assay (Q15910 whole entry, looked up): as the sequence (Q15910 whole entry) above
Series [7] is described as follows: Growth inhibition of human KARPAS422 cells after 4 days by Cell-Titer luminescence assay. The settings on record: KARPAS-422, 96 h. The series is classed as functional.
Series [8] in a line: Growth inhibition of human KARPAS422 cells after 7 days by Cell-Titer luminescence assay. The series is classed as functional. The note with it: KARPAS-422, 168 h.
Series [9] is described as follows: Growth inhibition of human KARPAS422 cells after 10 days by Cell-Titer luminescence assay. The series is classed as functional. The settings on record: KARPAS-422, 240 h.
A short description of series [10]: Growth inhibition of human KARPAS422 cells after 14 days by Cell-Titer luminescence assay. Type of series: functional. The note with it: KARPAS-422, 336 h.
Series [11] can be described thus: Growth inhibition of human KARPAS422 cells after 17 days by Cell-Titer luminescence assay. The series is classed as functional. The note with it: KARPAS-422, 408 h.

This note sets out measurements from ChEMBL document CHEMBL3259719, “Discovery and Optimization of Tetramethylpiperidinyl Benzamides as Inhibitors of EZH2” (ACS Med Chem Lett, 2014).

The IC50 is the concentration that gives 50% inhibition. A lower IC50 goes with higher potency. What is called efflux ratio is a quotient of directional permeabilities that is used to spot active efflux. The GI50 is the concentration giving 50% growth inhibition. A high value points to lower sensitivity of the cells.

Structures are written as SMILES. Some results are limits rather than exact numbers.

Sequence of Histone-lysine N-methyltransferase EZH2 (Homo sapiens, UniProt Q15910, Y641N) (Q15910 whole entry Y641N): as the sequence (Q15910 whole entry) above, with Y641N counted along it

Consider `CC1(C)CC(NC(=O)c2ccc(C(O)c3ccccc3)cc2)CC(C)(C)N1` (stereo unspecified), for which the half-inhibitory concentration (IC50) in series [1] is greater than 80 µM.
On to `CC1(C)CC(NC(=O)c2ccc(Oc3cccc(-c4ccncn4)c3C#N)c(Cl)c2)CC(C)(C)N1`, for which the IC50 in series [1] is 0.024 µM; in series [2], 0.13 µM.
On the same counts, the results for `Cc1cccc(Oc2ccc(C(=O)NC3CC(C)(C)NC(C)(C)C3)cc2Cl)c1C#N` are 0.14 µM and 1.4 µM.
`CC1(C)CC(NC(=O)c2ccc(Oc3ccccc3C#N)cc2)CC(C)(C)N1` registered an IC50 in [1] of 3.4 µM.
Still for that read-out and setting: for `CC1(C)CC(NC(=O)c2ccc(Oc3ccccc3)cc2)CC(C)(C)N1` the value was 51 µM; for `Cc1cccc(Oc2ccc(C(=O)NC3CC(C)(C)NC(C)(C)C3)cc2)c1`, 61 µM; for `Cc1cc(C(=O)NC2CC(C)(C)NC(C)(C)C2)cc(C)c1Oc1ccccc1C#N`, 51 µM.
Take `CC1(C)CC(NC(=O)c2ccc(Oc3ccccc3C#N)c(Br)c2)CC(C)(C)N1`: the IC50 in [1] came out at 0.32 µM.
Same read-out and setting: for `CC1(C)CC(NC(=O)c2ccc(OCc3ccccc3)cc2)CC(C)(C)N1` the value was greater than 80 µM; for `CC1(C)CC(NC(=O)c2ccc(Oc3ccccc3C#N)c(F)c2)CC(C)(C)N1`, 1 µM.
The same measure, in the same setting: the same measure for `Cc1ccc(Oc2ccc(C(=O)NC3CC(C)(C)NC(C)(C)C3)cc2)cc1`: greater than 80 µM; for `CC1(C)CC(NC(=O)c2ccc(Oc3ccccc3C#N)c(C#N)c2)CC(C)(C)N1`: 0.93 µM.
In the case of `CC1(C)CC(NC(=O)c2ccc(Cc3ccccc3)cc2)CC(C)(C)N1`, the IC50 in series [1] is greater than 80 µM.
Take `CC1(C)CC(NC(=O)c2ccc(Oc3ccccc3C#N)c(Cl)c2)CC(C)(C)N1CCO`: the IC50 in series [1] was 4.9 µM; in series [2], 62 µM.
Consider `CC1(C)CC(OC(=O)c2ccc(Oc3cccc(-c4ccnnc4)c3C#N)c(Cl)c2)CC(C)(C)N1`, for which the 50% inhibitory concentration (IC50) in series [1] was found to be 0.172 µM; in series [2], 2.5 µM. Besides, in [3], the Papp A→B came to 20.4 ×10⁻⁶ cm/s. For the same compound, the Papp B→A in series [4] stood at 47.7 ×10⁻⁶ cm/s. For the same compound, the efflux ratio in [5] was found to be 2.3.
With `CC1(C)CC(NC(=O)c2ccc(Oc3ccccc3C#N)cc2F)CC(C)(C)N1`, it took 15 µM to reach half-maximal inhibition in [1] (IC50).
For `CC1(C)CC(NC(=O)c2ccc(Oc3cccc(Cl)c3C#N)c(Cl)c2)CC(C)(C)N1`, the half-maximal inhibitory concentration (IC50) in series [1] turned out to be 0.14 µM; in [2], 2.2 µM.
In turn, `CC1(C)CC(NC(=O)c2ccc(C3(c4ccccc4)CC3)cc2)CC(C)(C)N1` displayed a half-maximal inhibitory concentration (IC50) in [1] greater than 80 µM.
Still for that read-out and setting: the same measure for `C#Cc1ccccc1Oc1ccc(C(=O)NC2CC(C)(C)NC(C)(C)C2)cc1`: 19 µM.
`Cc1ccccc1Oc1ccc(C(=O)NC2CC(C)(C)NC(C)(C)C2)cc1` yielded an IC50 in [1] of 48 µM.
As to `CC1(C)CC(NC(=O)c2ccc(Nc3ccccc3)cc2)CC(C)(C)N1`, the half-inhibitory concentration (IC50) in [1] is greater than 80 µM.
Same read-out and setting: for `CC1(C)CC(NC(=O)c2ccc(Oc3ccccc3C(C)(C)C)cc2)CC(C)(C)N1` the value was 7.9 µM; for `COc1ccccc1Oc1ccc(C(=O)NC2CC(C)(C)NC(C)(C)C2)cc1`, 59 µM.
As to `CC1(C)CC(NC(=O)c2ccc(Oc3cccc(-c4cn[nH]c4)c3C#N)c(Cl)c2)CC(C)(C)N1`, the IC50 was found to be 0.23 µM in series [1] and 4 µM in [2].
In turn, `CC1(C)CC(NC(=O)c2ccc([S+]([O-])c3ccccc3)cc2)CC(C)(C)N1` (stereo unspecified) yielded an IC50 in series [1] greater than 80 µM.
The same measure, in the same setting: the same measure for `CC1(C)CC(NC(=O)c2cc(F)c(Oc3ccccc3C#N)c(Br)c2)CC(C)(C)N1`: 1 µM; for `COc1cc(Oc2ccccc2C#N)ccc1C(=O)NC1CC(C)(C)NC(C)(C)C1`: greater than 80 µM.
Regarding `CC1CC(NC(=O)c2ccc(Oc3cccc(-c4ccnnc4)c3C#N)c(Cl)c2)CC(C)N1` (stereo unspecified), the figures for the IC50 in [1] and in series [2] were 2.1 µM and 10 µM, respectively.
The matching figures for `CC1(C)CC(NC(=O)c2ccc(Oc3cccc(-c4ccncc4)c3C#N)c(Cl)c2)CC(C)(C)N1`: 0.081 µM and 0.56 µM.
`CC1CC(NC(=O)c2ccc(Oc3cccc(-c4ccnnc4)c3C#N)c(Cl)c2)CC(C)(C)N1` (stereo unspecified): the values for the IC50 in [1] and in series [2] were 0.871 µM and 10 µM, respectively.
In the case of `CC1(C)CC(NC(=O)c2ccc(COc3ccccc3)cc2)CC(C)(C)N1`, the midpoint of inhibition in [1], the IC50, lay at 48 µM.
Still for that read-out and setting: for `CN(c1ccccc1)c1ccc(C(=O)NC2CC(C)(C)NC(C)(C)C2)cc1` the value was greater than 80 µM; for `CC1(C)CC(NC(=O)c2ccc(Oc3ccccc3OCc3ccccc3)cc2)CC(C)(C)N1`, 3.6 µM.
On the same count and under the same terms, for `CC1(C)CC(NC(=O)c2ccc(Oc3ccccc3C#N)c(Cl)c2)CC(C)(C)N1` the value was 0.45 µM.
In turn, `CC1(C)CC(NC(=O)c2ccc(Oc3ccccc3C#N)c(C3CC3)c2)CC(C)(C)N1` gave an IC50 in series [1] of 0.5 µM.
On the same count and under the same terms, for `CC1(C)CC(NC(=O)c2ccc(Oc3ccccc3Cl)cc2)CC(C)(C)N1` the value was 29 µM; for `CC1(C)CC(NC(=O)c2ccc(Sc3ccccc3)cc2)CC(C)(C)N1`, 33 µM.
Same read-out and setting: for `CC1(C)CC(NC(=O)c2ccc(Oc3ccccc3C#N)c3ccccc23)CC(C)(C)N1` the value was 0.84 µM; for `CC1(C)CC(NC(=O)c2ccc(S(=O)(=O)c3ccccc3)cc2)CC(C)(C)N1`, greater than 80 µM; for `Cc1cc(C(=O)NC2CC(C)(C)NC(C)(C)C2)ccc1Oc1ccccc1C#N`, 0.92 µM.
On the same count and under the same terms, for `CC1(C)CC(NC(=O)c2ccc(C(=O)c3ccccc3)cc2)CC(C)(C)N1` the value was 57 µM.
As for `CC1(C)CC(COc2ccc(Oc3cccc(-c4ccncn4)c3C#N)c(Cl)c2)CC(C)(C)N1`, the concentration for half-maximal inhibition (IC50) is 0.189 µM in series [1] and 2 µM in series [2]. Further, the Papp A→B in series [3] came out at 0.5 ×10⁻⁶ cm/s. Moreover, the Papp B→A in [4] was 2.1 ×10⁻⁶ cm/s. The efflux ratio in series [5] amounted to 4.4. In addition, in series [6], the Activity was greater than 15 µM.
As for `CC(c1ccccc1)c1ccc(C(=O)NC2CC(C)(C)NC(C)(C)C2)cc1` (stereo unspecified), the IC50 in series [1] was greater than 80 µM.
Take `CC1(C)CC(NC(=O)c2ccc(Oc3cccc(-c4ccnnc4)c3C#N)c(Cl)c2)CC(C)(C)O1`: the IC50 in series [1] was determined as 1.5 µM; in [2], 66 µM. Further, in series [3], the Papp A→B stood at 21.9 ×10⁻⁶ cm/s. Further, the Papp B→A in series [4] turned out to be 24.8 ×10⁻⁶ cm/s. Besides, the efflux ratio in series [5] is 1.1.
For `CC1(C)CC(NC(=O)c2ccc(Oc3ccccc3C#N)c(Cl)c2)C(F)(F)C(C)(C)N1` (stereo unspecified), the IC50 in [1] and in [2] was greater than 80 µM each time.
With `CC1(C)CC(NC(=O)c2ccc(Oc3cccc(-c4ccnnc4)c3C#N)c(Cl)c2)CC(C)(C)N1`, the Papp A→B in [3] was determined as 0.19 ×10⁻⁶ cm/s. In addition, the Papp B→A in series [4] came to 3.29 ×10⁻⁶ cm/s. In addition, in series [6], the Activity was 7 µM. In addition, the GI50 in series [7] was 70 µM; in [8], 24.8 µM; in [9] it was 23 µM; in [10], 13.2 µM; in [11] it was 9.1 µM.
On to `CC1(C)CC(NC(=O)c2ccc(Oc3ccccc3C#N)cc2Cl)CC(C)(C)N1`, for which it took 37 µM to reach half-maximal inhibition in series [1] (IC50).
